Results taken from ChEMBL document CHEMBL1201862, “PubChem BioAssay data set” (2004).
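96-well plates; 48 h exposure; 5 concentrations. Endpoints by linear interpolation between flanking doses. Not reached: highest tested concentration assigned. Here, GI50 denotes the concentration required for 50% inhibition of growth.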 The source made the active and inactive calls. No stated cut-off is given here; in the data, active = GI50 up to about 1.1 µM and inactive = higher.

Key:
Test in all cases: NCI-60 cell line screen, 48 h
LOX IMVI = tested on: LOX IMVI
TK-10 = tested on: TK-10
COLO 205 = tested on: COLO 205
MDA-MB-435 = tested on: MDA-MB-435
SW-620 = tested on: SW-620
MCF7 = tested on: MCF7
SNB-19 = tested on: SNB-19
RXF 393 = tested on: RXF 393
SK-MEL-28 = tested on: SK-MEL-28
OVCAR-3 = tested on: OVCAR-3
MDA-MB-231 = tested on: MDA-MB-231
HT-29 = tested on: HT-29
SF-295 = tested on: SF-295
HCT-116 = tested on: HCT-116
OVCAR-8 = tested on: OVCAR-8
SNB-75 = tested on: SNB-75
PC-3 = tested on: PC-3
MOLT-4 = tested on: MOLT-4
Malme-3M = tested on: Malme-3M
HL-60 = tested on: HL-60

Structure (SMILES)	GI50 (LOX IMVI)	GI50 (TK-10)	GI50 (COLO 205)	GI50 (MDA-MB-435)	GI50 (SW-620)	GI50 (MCF7)	GI50 (SNB-19)	GI50 (RXF 393)	GI50 (SK-MEL-28)	GI50 (OVCAR-3)	GI50 (MDA-MB-231)	GI50 (HT-29)	GI50 (SF-295)	GI50 (HCT-116)	GI50 (OVCAR-8)	GI50 (SNB-75)	GI50 (PC-3)	GI50 (MOLT-4)	GI50 (Malme-3M)	GI50 (HL-60)
CC(=O)O[C@@H]1CC[C@@]2(C)C(CC[C@H]3[C@@H]4CC[C@H]([C@H](C)CCc5nc6cc(C)ccc6[nH]5)[C@@]4(C)CC[C@@H]32)C1 (stereo partly specified)	1.66 µM (inactive)	> 100 µM (inactive)	24.4 µM (inactive)	> 100 µM (inactive)	> 100 µM (inactive)	38.4 µM (inactive)	> 100 µM (inactive)	6.81 µM (inactive)	> 100 µM (inactive)	20.9 µM (inactive)	18 µM (inactive)	12.4 µM (inactive)	12 µM (inactive)	> 100 µM (inactive)	11 µM (inactive)	6.04 µM (inactive)	9.53 µM (inactive)	28.1 µM (inactive)		
C=C(C)[C@@H]1C[C@H]2O[C@](O)(C(=C)CC(=O)/C=C(/C)C[C@@H]3OC(=O)[C@]24O[C@@H]34)[C@H]1O	> 100 µM (inactive)	> 100 µM (inactive)	> 100 µM (inactive)	> 100 µM (inactive)	> 100 µM (inactive)	> 100 µM (inactive)	> 100 µM (inactive)	> 100 µM (inactive)	> 100 µM (inactive)		> 100 µM (inactive)	> 100 µM (inactive)	> 100 µM (inactive)	> 100 µM (inactive)	> 100 µM (inactive)	> 100 µM (inactive)	> 100 µM (inactive)	> 100 µM (inactive)	> 100 µM (inactive)	
Cc1cc2c(cc1Cl)SC(NNc1cnc3ccccc3n1)=NS2(=O)=O	46 µM (inactive)	> 100 µM (inactive)	49.7 µM (inactive)	> 100 µM (inactive)	67.8 µM (inactive)		50.1 µM (inactive)	40.3 µM (inactive)	60.5 µM (inactive)	47.4 µM (inactive)	61 µM (inactive)	> 100 µM (inactive)	29.9 µM (inactive)	48.1 µM (inactive)	68.5 µM (inactive)	72.3 µM (inactive)	35.4 µM (inactive)	26.6 µM (inactive)	22.6 µM (inactive)	> 100 µM (inactive)
NC(=O)C(=O)n1ncc(Cl)c(Cl)c1=O	22.4 µM (inactive)	31.8 µM (inactive)	> 32.9 µM (inactive)	> 100 µM (inactive)	13.3 µM (inactive)	57.3 µM (inactive)	> 79.3 µM (inactive)	> 23.5 µM (inactive)	23.5 µM (inactive)	32.2 µM (inactive)	> 10 µM (inactive)	27.5 µM (inactive)	13.6 µM (inactive)	29.1 µM (inactive)	24.2 µM (inactive)	> 42.8 µM (inactive)		3.59 µM (inactive)	17.5 µM (inactive)	5.26 µM (inactive)
COc1cc(/C=C2\C(=O)N(c3ccccc3)C(c3ccccc3)S2(=O)=O)cc(OC)c1OC (stereo unspecified)	31.4 µM (inactive)	65 µM (inactive)	23.3 µM (inactive)	27 µM (inactive)	51.3 µM (inactive)	31.2 µM (inactive)	31 µM (inactive)	17.1 µM (inactive)	51.6 µM (inactive)	36 µM (inactive)	97.5 µM (inactive)	19.5 µM (inactive)	> 100 µM (inactive)	21.1 µM (inactive)	21.3 µM (inactive)			34 µM (inactive)	53.1 µM (inactive)	7.36 µM (inactive)
CC(=O)Nc1ccc2c(C)c3c(nc2n1)[nH]c1ccccc13	16.4 µM (inactive)	55.5 µM (inactive)	17.2 µM (inactive)	29.6 µM (inactive)	37.1 µM (inactive)	19.2 µM (inactive)		33.6 µM (inactive)		23.9 µM (inactive)	35.1 µM (inactive)	27.9 µM (inactive)	34.3 µM (inactive)	21.6 µM (inactive)	24.9 µM (inactive)	22.1 µM (inactive)	27.2 µM (inactive)	19.7 µM (inactive)		
CC1(C)OC[C@@H]([C@H](C=O)OCc2ccccc2)O1	> 100 µM (inactive)	> 100 µM (inactive)	> 100 µM (inactive)	> 100 µM (inactive)	> 100 µM (inactive)	> 100 µM (inactive)	> 100 µM (inactive)		> 100 µM (inactive)	> 100 µM (inactive)	> 100 µM (inactive)	> 100 µM (inactive)	> 100 µM (inactive)	> 100 µM (inactive)	> 100 µM (inactive)	> 100 µM (inactive)	> 100 µM (inactive)	> 100 µM (inactive)	> 100 µM (inactive)	
Cc1cc2c(c(C(=O)NCCC(=O)N[C@@H](C)C(=O)OCc3ccccc3)c1)Oc1c(cc(C)cc1C(=O)NCCC(=O)N[C@@H](C)C(=O)OCc1ccccc1)S2			> 100 µM (inactive)	> 100 µM (inactive)	> 100 µM (inactive)	> 100 µM (inactive)	> 100 µM (inactive)	38.5 µM (inactive)		> 100 µM (inactive)	> 100 µM (inactive)	> 100 µM (inactive)	> 100 µM (inactive)	> 100 µM (inactive)	> 100 µM (inactive)	> 100 µM (inactive)	> 100 µM (inactive)	> 100 µM (inactive)	> 100 µM (inactive)	
N#CC(C#N)=CNC(=S)Nc1ccc(S(=O)(=O)Nc2nccs2)cc1	> 100 µM (inactive)	> 100 µM (inactive)	> 100 µM (inactive)	> 100 µM (inactive)	> 100 µM (inactive)	> 100 µM (inactive)	> 100 µM (inactive)	> 100 µM (inactive)	> 100 µM (inactive)	> 100 µM (inactive)	> 100 µM (inactive)	> 100 µM (inactive)	> 100 µM (inactive)	> 100 µM (inactive)	> 100 µM (inactive)	> 100 µM (inactive)		> 100 µM (inactive)		> 100 µM (inactive)
CC1OC2OC3C(OCC(O)C3O)OC(=O)[C@]34CCC(C)(C)CC3C3=CCC5[C@@]6(C)C[C@H](O)[C@H](OC7OC(CO)C(O)C(O)C7OC7OC(COC(=O)CC(C)(O)CC(=O)OC1C(OC1OC(CO)C(O)C(O)C1O)C2O)C(O)C(O)C7O)[C@@](C)(CO)C6CC[C@@]5(C)[C@]3(C)CC4 (stereo partly specified)	3.27 µM (inactive)	1.85 µM (inactive)	2.23 µM (inactive)	1.91 µM (inactive)	0.359 µM (active)		5.81 µM (inactive)		1.3 µM (inactive)	4.35 µM (inactive)	7.52 µM (inactive)	1.52 µM (inactive)	1.52 µM (inactive)	2.59 µM (inactive)	3.92 µM (inactive)	2.82 µM (inactive)	1.95 µM (inactive)	2.98 µM (inactive)	2.41 µM (inactive)	1.44 µM (inactive)
CC1(C)OCC(CO)(Nc2nc(N3CC3)nc(N3CC3)n2)CO1	5.52 µM (inactive)	24.6 µM (inactive)	20.3 µM (inactive)	19.5 µM (inactive)	14.5 µM (inactive)		11.2 µM (inactive)	13.2 µM (inactive)	19.5 µM (inactive)	20.4 µM (inactive)	> 10 µM (inactive)	13.9 µM (inactive)	2.96 µM (inactive)	1.85 µM (inactive)	11.3 µM (inactive)	6.58 µM (inactive)	17.9 µM (inactive)	0.597 µM (active)	16.9 µM (inactive)	0.69 µM (active)
c1cc2c(cc1C1=NCCN1)c1cc(C3=NCCN3)ccc1n2CC1CCCCC1	16.3 µM (inactive)	51.3 µM (inactive)	1.74 µM (inactive)	18 µM (inactive)	20.4 µM (inactive)		5.9 µM (inactive)	39.5 µM (inactive)	10.4 µM (inactive)	21.2 µM (inactive)	16.6 µM (inactive)	11.5 µM (inactive)	32.1 µM (inactive)	12.9 µM (inactive)	25.4 µM (inactive)	11.6 µM (inactive)	21.5 µM (inactive)	5.05 µM (inactive)	8.11 µM (inactive)	14.3 µM (inactive)
NS(=O)(=O)c1nnc(NC(=O)c2ccccc2)s1	> 100 µM (inactive)	> 100 µM (inactive)	> 100 µM (inactive)	> 100 µM (inactive)	> 100 µM (inactive)	> 100 µM (inactive)	> 100 µM (inactive)	> 100 µM (inactive)	> 100 µM (inactive)	> 100 µM (inactive)	> 100 µM (inactive)		> 100 µM (inactive)	> 100 µM (inactive)	> 100 µM (inactive)			> 100 µM (inactive)	> 100 µM (inactive)	
O=C1OC(c2ccc(O)c(Cl)c2)(c2ccc(O)c(Cl)c2)c2ccc(Br)c3cccc1c23.O=C1OC(c2ccc(O)c(Cl)c2)(c2ccc(O)c(Cl)c2)c2cccc3c(Br)ccc1c23	20 µM (inactive)	17.1 µM (inactive)	7.05 µM (inactive)	18 µM (inactive)	23.9 µM (inactive)	15.2 µM (inactive)	23.1 µM (inactive)	17.3 µM (inactive)	20.9 µM (inactive)	5.82 µM (inactive)	14.2 µM (inactive)	11.5 µM (inactive)	18.3 µM (inactive)	19.3 µM (inactive)	27.8 µM (inactive)	22.5 µM (inactive)	14.3 µM (inactive)	16.3 µM (inactive)	18.9 µM (inactive)	
